Test results published in patent US20220030882A1, “Composition and Method to Remove Parasites From Fish and to Prevent or Treat Infestation or Infection of Parasites on Fish” (priority 2018, published 2022).

Experiments:
[1] = test system: salmon lice; set-up: species or system Lepeophteirus salmonis; conditions: in vivo
[2] = cited from earlier work

## COc1cc(CNC(=O)CCCC/C=C/C(C)C)ccc1O [capsaicin]
[1]
  effect on the lice: has an effect
  sum of the effects on lice of each agent on its own versus the combination of capsaicin and acetic acid: considerably lower
[2]; pure capsaicin
  solubility in ethanol and other hydrophobic solvents: soluble
[2]; water
  solubility in water: not soluble
